Reference: ChEMBL document CHEMBL6087474, “Discovery of an Efficacious RET PROTAC Degrader with Enhanced Antiproliferative Activity against Resistant Cancer Cells Harboring RET Solvent-Front Mutations” (J Med Chem, 2025)

Columns and labels:
[1] = Effect on RET protein level in mouse BaF3 cells stably expressing KIF5B-RET-G810R mutant assessed as fold change at 11.1 nM measured after 6 hrs by Western blot analysis (reference value: 1); format: functional
BaF3 [2] = experiment: Antiproliferative activity against mouse BaF3 cells stably expressing KIF5B-RET-G810R mutant incubated for 72 hrs by CCK-8 assay; format: functional, cell-based; conditions: BaF3, 72 h
[3] = Induction of apoptosis in mouse BaF3 cells stably expressing KIF5B-RET-G810C mutant assessed as late apoptotic cells at 300 nM measured after 48 hrs by Annexin V-FITC/7-AAD staining based flow cytometric analysis (reference value: 1.96 %); format: functional
[4] = Effect on Shc protein level in mouse BaF3 cells stably expressing KIF5B-RET-V804M mutant assessed as fold change at 100 nM measured after 6 hrs by Western blot analysis (reference value: 1); format: functional
[5] = Induction of apoptosis in mouse BaF3 cells stably expressing KIF5B-RET-G810C mutant assessed as viable cells at 900 nM measured after 48 hrs by Annexin V-FITC/7-AAD staining based flow cytometric analysis (reference value: 86.58 %); format: functional; conditions: read-out: Activity
[6] = Induction of apoptosis in mouse BaF3 cells stably expressing wildtype KIF5B-RET fusion protein assessed as necrotic cells at 300 nM measured after 48 hrs by Annexin V-FITC/7-AAD staining based flow cytometric analysis (reference value: 2.40 %); format: functional
[7] = Effect on RET protein level in mouse BaF3 cells stably expressing wildtype KIF5B-RET assessed as fold change at 300 nM measured after 6 hrs by Western blot analysis (reference value: 1); format: functional
[8] = Effect on RET protein level in mouse BaF3 cells stably expressing KIF5B-RET-G810R mutant assessed as fold change at 100 nM measured after 6 hrs by Western blot analysis (reference value: 1); format: functional
BaF3 [9] = experiment: PROTAC activity at CRBN/KIF5B-RET (unknown origin) expressed in mouse BaF3 cells assessed as induction of RET degradation at 10 nM measured after 6 hrs by Western blot analysis relative to control; format: cell-based
[10] = Effect on Shc protein level in mouse BaF3 cells stably expressing KIF5B-RET-G810R mutant assessed as fold change at 100 nM measured after 6 hrs by Western blot analysis (reference value: 1); format: functional
[11] = Effect on Shc protein level in mouse BaF3 cells stably expressing KIF5B-RET-G810C mutant assessed as fold change at 300 nM measured after 6 hrs by Western blot analysis (reference value: 1); format: functional
[12] = Induction of apoptosis in mouse BaF3 cells stably expressing KIF5B-RET-G810C mutant assessed as early apoptotic cells at 100 nM measured after 48 hrs by Annexin V-FITC/7-AAD staining based flow cytometric analysis (reference value: 8.57 %); format: functional
[13] = Effect on RET protein level in mouse BaF3 cells stably expressing KIF5B-RET-V804M mutant assessed as fold change at 300 nM measured after 6 hrs by Western blot analysis (reference value: 1); format: functional
[14] = Induction of apoptosis in mouse BaF3 cells stably expressing KIF5B-RET-G810C mutant assessed as early apoptotic cells at 300 nM measured after 48 hrs by Annexin V-FITC/7-AAD staining based flow cytometric analysis (reference value: 8.57 %); format: functional

SMILES: COc1ccc(CN2C3CC2CN(c2ccc(-c4cc(-c5cnn(C6CCN(CCCCCC#Cc7cccc8c7CN(C7CCC(=O)NC7=O)C8=O)CC6)c5)cn5ncc(C#N)c45)cn2)C3)cn1 (centres undefined)
- fold change (FC) [1]: 1
- IC50 (BaF3 [2]): 150 nM
- Activity [3]: 2.91%
- fold change (FC) [4]: 0.9
- viability at 0.9 µM [5]: 41%
- Activity [6]: 0.42%
- fold change (FC) [7]: 0.2
- fold change (FC) [8]: 0.9
- Activity (BaF3 [9]): 60%
- fold change (FC) [10]: 0.9
- fold change (FC) [11]: 1
- Activity [12]: 19.9%
- fold change (FC) [13]: 0.1
- Activity [14]: 31.81%
